One compound from patent US20260137758A1, “TREATMENT OF STEATOTIC LIVER DISEASE ASSOCIATED WITH METABOLIC DYSFUNCTION” (priority 2024, published 2026) can be followed below.

Starred links: 1 amine or outer side, 2 acyl side, 3 side chain; linkers in the order of their positions; H or OH if unused. Non-standard residues stand in square brackets, D forms with d. Residues, ends and D or L forms follow the SMILES beside them. Groups on a side chain read outwards from the residue. *: point of attachment. Isobutyryl(2-(3-CN-5-F-Ph)) = CC(C)(C(=O)*)c1cc(F)cc(C#N)c1; C20 diacid = O=C(O)CCCCCCCCCCCCCCCCCCC(=O)*; γGlu = O=C(O)[C@H](CCC(=O)[*:2])N[*:1]; AEEA = NCCOCCOCC(=O)O; Aib = CC(C)(N)C(=O)O; βAla = NCCC(=O)O

For data set [1], the target named is T1, human GLP-1R (Homo sapiens, UniProt P43220). In words: β-arrestin-2 recruitment (NanoBiT), HEK293, human GLP-1R. Set-up: expressed in transfected cells; host or cells: HEK293 (stably or transiently transfected). Conditions: HEK293, read-out: β-arrestin-2 % Emax. Type of data set: cell-based. The protocol:
(§1) β-arrestin recruitment was measured using Promega's NanoBiT technology and Nano-Glo® Live Cell Substrate in HEK293 cells. β-arrestin-2 recruitment was measured using Promega's NanoBiT technology and Nano-Glo® Live Cell Substrate (catalog number N2012), which uses the NanoLuc luciferase split into two subunits called LgBiT and SmBiT. HEK293 cells were either stably or transiently transfected with equal amounts of DNA plasmids expressing the fusion proteins human GLP-1R-LgBiT or GIPR-LgBiT and SmBiT-(human)-β-arrestin-2; similar methods were used for mouse GLP-1R, GIPR, and β-arrestin-2. […] The following day, the media was removed and replaced with 10 μL of a 1:100 dilution of Nano-Glo® Live Cell Substrate with NanoBiT buffer and OptiMem and equilibrated to room temperature for ten minutes covered. Background luminescence was measured before adding 100 nL of compound dilutions (made in a 1:1 ratio in DMSO). Compounds were transferred using an ECHO Acoustic Liquid Handler (Beckman Coulter) and luminescence was measured at 1.5-minute intervals for 15 minutes using an EnVision Multimode Plate Reader (PerkinElmer; Waltham, MA).
(§2) Each dilution series was normalized to the adjacent high (100%) and low (0%) wells on the plate. […]
(§3) and the Hillslope was constrained to 1. […] For NanoBiT assays, a single time point during the 30-minute activity measurements was selected for maximum luminescence response. […]
(Recruitment of arrestin is a read-out of receptor activation apart from second messengers.)

Data set [2] has as its target T1, human GLP-1R. Nature of the data set: cAMP accumulation (HitHunter), CHO-K1 cells expressing SNAP-human GLP-1R. Type of data set: cell-based. More on the design: expressed in transfected cells. The procedure:
(§4) cAMP production was measured using the HitHunter® cAMP Assay for Small Molecules kit in mammalian cell lines overexpressing either GLP-1R or GIPR. […] A total of 10,000 cells in 5 μL of media were added to each well of a 384-well, low-volume assay plate. For mouse receptor cAMP assays, either U2OS cells stably expressing mouse GLP-1R (DiscoverX 95-0179C3) or CHO-K1 cells stably expressing mouse GIPR (DiscoverX 95-0154C2) were used. Twenty-four hours before the assay, 5000-10,000 cells per well were plated in 384-well, low-volume tissue culture-treated plates in Assay Complete Cell Plating reagent 2 (murine GIPR cells) or 5 (murine GLP-1R cells). […] Compounds were diluted 1:1 in DMSO and 5 nL was transferred to the tissue-culture plate wells using an ECHO Acoustic Liquid Handler (Beckman Coulter).
(§5) Each dilution series was normalized to the adjacent high (100%) and low (0%) wells on the plate. Dose-response data were fitted to a curve using nonlinear regression analysis using the “log(agonist) vs response-variable slope” setting, where:
(§6) Y=Bottom+(Top−Bottom)/(1+10^((Log EC50−X)*HillSlope))
(§7) and the Hillslope was constrained to 1. Compound potency and efficacy were extracted from this regression analysis. […] For NanoBiT assays, a single time point during the 30-minute activity measurements was selected for maximum luminescence response. […]
(Changes in cAMP serve as a functional read-out for many G protein-coupled receptors.)

In data set [3] the target is T2, human GIPR (Homo sapiens, UniProt P48546).
T2 sequence (P48546 22-466): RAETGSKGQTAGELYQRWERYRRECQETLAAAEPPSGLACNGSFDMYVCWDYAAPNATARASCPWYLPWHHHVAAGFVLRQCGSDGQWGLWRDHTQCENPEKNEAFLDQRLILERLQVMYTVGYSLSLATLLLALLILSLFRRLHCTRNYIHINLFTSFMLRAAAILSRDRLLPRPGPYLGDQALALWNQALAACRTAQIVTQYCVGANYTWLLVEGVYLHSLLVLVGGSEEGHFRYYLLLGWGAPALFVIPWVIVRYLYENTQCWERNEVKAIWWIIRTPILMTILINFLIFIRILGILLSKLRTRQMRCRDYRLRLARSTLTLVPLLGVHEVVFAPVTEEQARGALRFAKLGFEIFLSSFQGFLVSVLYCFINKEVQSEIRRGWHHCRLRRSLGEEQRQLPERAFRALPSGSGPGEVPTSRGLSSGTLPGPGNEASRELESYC
Nature of the data set: cAMP accumulation (HitHunter), CHO-K1 cells expressing SNAP-human GIPR. The format is cell-based. Set-up: expressed in transfected cells. The procedure:
as §4, §5, §6, §7

Data set [4] deals with T1, human GLP-1R. In words: Receptor internalization (Nano-Glo HiBiT), HEK293, human GLP-1R. Type of data set: cell-based. Set-up: expressed in transfected cells. The protocol: Receptor internalization for human GLP-1R and GIPR was measured with Promega's Nano-Glo® HiBit extracellular detection system in HEK293 cells. Receptor internalization for human GLP-1R and GIPR was measured using the Promega Nano-Glo© HiBit extracellular detection system (Promega Corporation). HEK293 cells were transiently transfected with 1000:1 ratio of carrier plasmid (pcDNA3.1) and plasmids containing HiBiT-tagged human GLP-1R or human GIPR sequences (Promega Corporation). Cells were dissociated the following day using TrypLE express enzyme (ThermoFisher Scientific) and plated in 96-well plates at 80,000-100,000 cells per well. Forty-eight hours post-transfection, media was replaced with equal parts CO2 independent media (Gibco) and Nano-Glo extracellular buffer containing LgBiT protein (diluted 1:100), and Nano-Glo HiBiT extracellular substrate (diluted 1:50). After a 15-minute equilibration and background luminescence reading, test compounds were added and the luminescence was measured for 120 minutes at two-minute intervals using an EnVision Multimode Plate Reader (PerkinElmer).
as §7
Background: HiBiT is a short tag that completes a luciferase, so light tracks the accessible tagged protein.

Data set [5] in a line: Phase 1 SAD: pharmacokinetics. Type of data set: in vivo. To be noted: human, serum; SAD Cohort 4 (6.0 mg) single SC dose; read-out: Vz/F (mean).
Description: PK parameters were also summarized using descriptive statistics (number of participants, mean, geometric mean, standard deviation, coefficient of variation, median, minimum, and maximum). In the SAD portion, the power model was used to assess dose proportionality.
The target of data set [6] is T2, human GIPR. Nature of the data set: β-arrestin-2 recruitment (NanoBiT), HEK293, human GIPR. Set-up: expressed in transfected cells; host or cells: HEK293 (stably or transiently transfected). The format is cell-based. Conditions: HEK293, read-out: β-arrestin-2 % Emax. The procedure: as §1, §2, §3

T1 sequence (P43220 24-463): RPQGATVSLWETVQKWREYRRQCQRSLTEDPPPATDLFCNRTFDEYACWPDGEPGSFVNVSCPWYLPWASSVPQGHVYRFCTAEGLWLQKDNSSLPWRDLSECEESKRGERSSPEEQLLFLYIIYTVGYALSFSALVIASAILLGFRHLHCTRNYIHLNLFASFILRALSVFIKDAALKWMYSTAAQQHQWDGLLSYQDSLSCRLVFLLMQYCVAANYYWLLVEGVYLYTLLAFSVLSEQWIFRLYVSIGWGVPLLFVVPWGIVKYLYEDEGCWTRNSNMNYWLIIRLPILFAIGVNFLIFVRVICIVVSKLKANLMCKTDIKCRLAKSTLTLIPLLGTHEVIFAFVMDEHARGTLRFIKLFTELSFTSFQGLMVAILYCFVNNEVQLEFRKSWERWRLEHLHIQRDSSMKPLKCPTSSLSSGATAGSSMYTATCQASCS

A word on the Emax: it is the size of the effect at its maximum, as opposed to the concentration needed. For `CC[C@H](C)[C@H](NC(=O)[C@H](CC(C)C)NC(=O)[C@H](Cc1c[nH]c2ccccc12)NC(=O)[C@H](CCC(N)=O)NC(=O)[C@@H](NC(=O)[C@H](Cc1ccccc1)NC(=O)[C@H](C)NC(=O)[C@H](CCCCNC(=O)COCCOCCNC(=O)COCCOCCNC(=O)CC[C@H](NC(=O)CCCCCCCCCCCCCCCCCCC(=O)O)C(=O)O)NC(=O)[C@H](CCC(N)=O)NC(=O)[C@H](C)NC(=O)[C@@H](NC(=O)[C@H](CCCCN)NC(=O)[C@H](CC(=O)O)NC(=O)[C@H](CC(C)C)NC(=O)C(C)(C)NC(=O)[C@@H](NC(=O)[C@H](CO)NC(=O)[C@H](Cc1ccc(O)cc1)NC(=O)[C@H](CC(=O)O)NC(=O)[C@H](CO)NC(=O)[C@@H](NC(=O)[C@H](Cc1ccccc1)NC(=O)[C@@H](NC(=O)CNC(=O)[C@H](CCC(=O)O)NC(=O)CCNC(=O)C(C)(C)c1cc(F)cc(C#N)c1)[C@@H](C)O)[C@@H](C)O)[C@@H](C)CC)[C@@H](C)CC)C(C)C)C(=O)N[C@@H](C)C(=O)NCC(=O)NCC(=O)N1CCC[C@H]1C(=O)N[C@@H](CO)C(=O)N[C@@H](CO)C(=O)NCC(=O)N[C@@H](C)C(=O)N1CCC[C@H]1C(=O)N1CCC[C@H]1C(=O)N1CCC[C@H]1C(=O)N[C@@H](CO)C(N)=O` [CT-388] ({Isobutyryl(2-(3-CN-5-F-Ph))-βAla}-EGTFTSDYSI[Aib]LDKIAQK([AEEA-AEEA-γGlu-C20 diacid])AFVQWLIAGGPSSGAPPPS-NH2), the Emax at human GLP-1R [1] amounted to 4%; at human GLP-1R [2], 99%; on human GIPR [3], 92%; at human GLP-1R [4], 6%; at human GIPR [6] it was 28%. For the same compound, the Vd/F in data set [5] stood at 11.4 L.
